Marks after values point to notes of the source that are not given here.
Experiments:
3T3-L1 adipocytes [1] = test: Adiponectin secretion from insulin-resistant 3T3-L1 adipocytes; type: cell-based, murine
Description: 3T3-L1 cells were seeded at an initial density of 1×10^4 cells/cm^2 in 96-well plates. For two days, the cells were allowed grow to reach confluence. Following confluence, the cells were forced to differentiate into adipocytes by the addition of differentiation medium; this medium consisted of (1) 10% FBS/DMEM (high glucose); (2) 0.5 mM methylisobutylxanthine; (3) 0.5 μM dexamethasone and (4) 10 μg/ml insulin (MDI medium). From Day 3 through Day 5, the medium was changed to post-differentiation medium consisting of 10 μg/ml insulin in 10% FBS/DMEM.
Briefly, on Day 6, cells were maintained in serum-free media containing 0.5% bovine serum albumin (BSA) for three hours and then treated with 1 μg insulin/ml plus solvent or insulin plus test material. […] Twenty-four hours later, the supernatant medium was sampled for adiponectin determination.
Adiponectin Assay—The adiponectin secreted into the medium was quantified using the Mouse Adiponectin Quantikine® Immunoassay kit with no modifications (R&D Systems, Minneapolis, Minn.).
Statistical Calculations and Interpretation—All assays were preformed in duplicate. […] Differences between the doses were determined using the student's t-test without correction for multiple comparisons; the nominal five percent probability of a type I error was selected. […]

3T3-L1 adipocytes [2] = test: Lipogenesis in 3T3-L1 adipocytes (Oil Red O / BODIPY); type: cell-based, murine; conditions: for adipogenic response of hops compounds: 10, 5, 4 or 2 μg/ml, spent hops 50 μg/ml
Description: Prior to experiments, cells were cultured in DMEM containing 10% FBS-HI added 50 units penicillin/ml and 50 μg streptomycin/ml, and maintained in log phase prior to experimental setup. Cells were grown in a 5% CO2 humidified incubator at 37° C. Components of the pre-confluent medium included (1) 10% FBS/DMEM containing 4.5 g glucose/L; (2) 50 U/ml penicillin; and (3) 50 μg/ml streptomycin. Growth medium was made by adding 50 ml of heat inactivated FBS and 5 ml of penicillin/streptomycin to 500 ml DMEM. This medium was stored at 4° C. Before use, the medium was warmed to 37° C. in a water bath.
3T3-T1 cells were seeded at an initial density of 6×10^4 cells/cm^2 in 24-well plates. For two days, the cells were allowed grow to reach confluence. Following confluence, the cells were forced to differentiate into adipocytes by the addition of differentiation medium; this medium consisted of (1) 10% FBS/DMEM (high glucose); (2) 0.5 mM methylisobutylxanthine; (3) 0.5 μM dexamethasone and (4) 10 μg/ml insulin (MDI medium). After three days, the medium was changed to post-differentiation medium consisting of 10 μg/ml insulin in 10% FBS/DMEM.
AcE was partially dissolved in dimethyl sulfoxide (DMSO) and added to the culture medium to achieve a concentration of 50 μg/ml at Day 0 of differentiation and throughout the maturation phase (Days 6 or 7 (D6/7)). Whenever fresh media were added, fresh test material was also added. DMSO was chosen for its polarity and the fact that it is miscible with the aqueous cell culture media.
Oil Red O Staining—Triglyceride content of D6/D7-differentiated 3T3-L1 cells was estimated with Oil Red O according to the method of Kasturi and Joshi [Kasturi, R. and Joshi, V. C. […] Monolayer cells were washed with PBS (phosphate buffered saline, Mediatech) and fixed with 10% formaldehyde for ten minutes. Fixed cells were stained with an Oil Red O working solution of three parts 0.6% Oil Red O/isopropanol stock solution and two parts water for one hour and the excess stain was washed once with water. The resulting stained oil droplets were extracted from the cells with isopropanol and quantified by spectrophotometric analysis at 540 nm (MEL312e BIO-KINETICS READER, Bio-Tek Instruments, Winooski, Vt.).
Briefly, media were removed and cells were washed once with non-sterile PBS. A stock 1000× BODIPY/DMSO solution was made by dissolving 1 mg BODIPY in 1 ml DMSO (1,000 μg BODIPY/ml). […] After 15 min on an orbital shaker (DS-500, VWR Scientific Products, South Plainfield, N.J.) at ambient temperature, the cells were washed with 100 μl PBS followed by the addition of 100 μl PBS for reading for spectrofluorometric determination of BODIPY incorporation into the cells. […]

[3] = Non-fasting serum glucose and insulin in db/db diabetic mice; type: in vivo, mouse; conditions: three consecutive days, gavage
Description: The Model—Male, C57BLKS/J m^+/m^+Lepr^db (db/db) mice were used to assess the potential of the test materials to reduce fasting serum glucose or insulin concentrations. This strain of mice is resistant to leptin by virtue of the absence of a functioning leptin receptor.
Testing Procedure—Test substances were administered daily by gavage in 0.2% Tween-80. Serum was collected from the retroorbital sinus before the initial dose and ninety minutes after the third and final dose. Non-fasting serum glucose was determined enzymatically by the mutarotase/glucose oxidase method and serum insulin was determined by a mouse specific ELISA.
The Model—Male, C57BLKS/J m+/m+ Leprdb (db/db) mice were used to assess the potential of the test materials to reduce fasting serum glucose or insulin concentrations. This strain of mice is resistant to leptin by virtue of the absence of a functioning leptin receptor.
Testing Procedure—Test substances were administered daily by gavage in 0.2% Tween-80. Serum was collected from the retroorbital sinus before the initial dose and ninety minutes after the fifth and final dose. Non-fasting serum glucose was determined enzymatically by the mutarotase/glucose oxidase method and serum insulin was determined by a mouse specific ELISA.

3T3-L1 adipocytes [4] = test: IL-6 secretion in LPS/3T3-L1 adipocytes; type: cell-based, murine; conditions: 100 ng LPS/ml
3T3-L1 adipocytes [5] = test: IL-6 secretion from TNFα-treated 3T3-L1 adipocytes; type: cell-based, murine; conditions: 10 ng TNFα/ml
Description: Interleukin-6 Assay—The IL-6 secreted into the medium was quantified using the Quantikine® Mouse IL-6 Immunoassay kit with no modifications (R&D Systems, Minneapolis, Minn.). […] All supernatant media samples were assayed undiluted.
Statistical Calculations and Interpretation—All assays were preformed in duplicate. […] Differences among the doses were determined using the student's t-test without correction for multiple comparisons; the nominal five percent probability of a type I error (one-tail) was selected.

3T3-L1 adipocytes [6] = test: Adiponectin secretion from TNFα-treated 3T3-L1 adipocytes; type: cell-based, murine
Description: For two days, the cells were allowed grow to reach confluence. […] (3) 0.5 μM dexamethasone and (4) 10 μg/ml insulin (MDI medium). […] Adiponectin Assay—The adiponectin secreted into the medium was quantified using the Mouse Adiponectin Quantikine® Immunoassay kit with no modifications (R&D Systems, Minneapolis, Minn.). […] Statistical Calculations and Interpretation—All assays were preformed in duplicate. […] Differences among the doses and test agents were determined using the Student's t-test without correction for multiple comparisons; the nominal five percent probability of a type I error was selected.

PI3K gamma = PI3K gamma (Homo sapiens, UniProt P48736); test: KinaseProfiler Assay; type: biochemical; conditions: 50 μg/ml
PI3K gamma, sequence (P48736 whole entry): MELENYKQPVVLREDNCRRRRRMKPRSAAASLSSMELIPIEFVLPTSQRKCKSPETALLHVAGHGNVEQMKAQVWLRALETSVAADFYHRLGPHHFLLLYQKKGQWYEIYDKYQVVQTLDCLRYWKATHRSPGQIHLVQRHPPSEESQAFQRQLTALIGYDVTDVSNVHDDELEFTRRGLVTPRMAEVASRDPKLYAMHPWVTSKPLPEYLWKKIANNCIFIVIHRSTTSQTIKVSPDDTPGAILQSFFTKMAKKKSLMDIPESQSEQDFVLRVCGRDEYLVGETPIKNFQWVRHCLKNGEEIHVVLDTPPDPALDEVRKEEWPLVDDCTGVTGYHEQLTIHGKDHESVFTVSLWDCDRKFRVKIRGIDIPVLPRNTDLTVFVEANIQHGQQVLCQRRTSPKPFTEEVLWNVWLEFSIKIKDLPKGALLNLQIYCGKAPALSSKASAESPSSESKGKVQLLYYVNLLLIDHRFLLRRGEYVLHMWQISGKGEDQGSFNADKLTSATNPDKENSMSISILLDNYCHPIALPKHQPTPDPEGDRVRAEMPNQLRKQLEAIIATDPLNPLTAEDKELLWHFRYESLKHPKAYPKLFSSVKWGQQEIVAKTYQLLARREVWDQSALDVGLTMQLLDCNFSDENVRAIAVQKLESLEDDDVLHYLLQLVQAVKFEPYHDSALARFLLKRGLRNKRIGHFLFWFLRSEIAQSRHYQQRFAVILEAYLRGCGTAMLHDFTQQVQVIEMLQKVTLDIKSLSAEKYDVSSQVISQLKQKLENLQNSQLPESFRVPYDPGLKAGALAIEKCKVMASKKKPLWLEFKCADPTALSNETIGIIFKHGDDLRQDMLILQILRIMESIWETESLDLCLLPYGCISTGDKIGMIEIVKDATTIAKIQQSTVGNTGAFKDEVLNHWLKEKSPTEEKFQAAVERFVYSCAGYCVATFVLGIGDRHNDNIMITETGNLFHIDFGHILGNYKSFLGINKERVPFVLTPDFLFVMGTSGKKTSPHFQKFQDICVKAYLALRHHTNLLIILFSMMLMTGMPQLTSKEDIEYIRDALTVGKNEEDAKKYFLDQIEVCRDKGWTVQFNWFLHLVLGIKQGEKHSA

3T3-L1 adipocytes [7] = test: Adiponectin secretion in LPS/3T3-L1 adipocytes; type: cell-based, murine; conditions: for % Stimulation (maximum) of adiponectin secretion: 0.625 μg/ml; for adiponectin secretion: LPS, any dose tested
NF-kBp65 = test: Nuclear translocation of NF-kBp65 in TNFα-treated 3T3-L1 adipocytes; type: cell-based, murine; conditions: three or 24 hours following TNFα
Description: Cell Culture and Treatment—Following differentiation 3T3-L1 adipocytes were maintained in post-differentiation medium for an additional 40 days. […] Hops derivatives and the positive control pioglitazone were tested at concentrations of 2.5, and 5.0 μg/ml. Test materials were added 1 hour prior to and nuclear extracts were prepared three and 24 hours following treatment with TNFα.
ELISA—3T3-L1 adipocytes were maintained in growth media for 40 days following differentiation. Nuclear NF-kBp65 was determined using the TransAM™ NF-kB kit from Active Motif (Carlsbad, Calif.) was used with no modifications. Jurkat nuclear extracts provided in the kit were derived from cells cultured in medium supplemented with 50 ng/ml TPA (phorbol, 12-myristate, 13 acetate) and 0.5 μM calcium ionophore A23187 for two hours at 37° C. immediately prior to harvesting.
Protein assay—Nuclear protein was quantified using the Active Motif Fluorescent Protein Quantification Kit.
Statistical Analysis—Comparisons were performed using a one-tailed Student's t-test. The probability of a type I error was set at the nominal five percent level.

[8] = tested on: A549 pulmonary epithelial cells; test: PGE2 biosynthesis in A549 cells stimulated by mite dust allergen; type: cell-based, human; conditions: 10 μg/ml, mite allergen 1000 ng/ml, 18 h
Description: The filtrate was termed mite dust allergen and used to test for induction of PGE2 biosynthesis in A549 pulmonary epithelial cells.
Mite allergen was added to the culture medium to achieve a final concentration of 1000 ng/ml. Eighteen hours later, the media were sampled for PGE2 determination.

[9] = 10 ng TNFα/ml, listed as indomethacin

For `CC(C)CCC1=C(O)C(C(=O)C(C)C)=C(O)C(CCC(C)C)(CCC(C)C)C1=O` [Hexahydrocolupulone (HHCL)], the Adiponectin/IL-6 (3T3-L1 adipocytes [1]; 50.0 μg/ml, ratio of indices) was 0.60#.

For `CN(C)C(=N)N=C(N)N` [metformin, Metformin], the lipogenic index (3T3-L1 adipocytes [2]; 50 μg test material/ml, observed) was 0.79 and the “serum glucose relative to controls” value [3] was “decreased both serum glucose and insulin concentrations”.

For `CC(C)CCC1=C(O)C(C(=O)C(C)C)=C(O)C(CCC(C)C)(CCC(C)C)C1=O` [hexahydrocolupulone], the “concentration for half maximal adiponectin secretion” value (3T3-L1 adipocytes [1]; Hofstee plot) was 3.2 µg/mL and the “adipogenic response of hops compounds” value (3T3-L1 adipocytes [2]) was “failed to elicit a lipogenic response greater than the solvent controls”.

For `COc1ccc2c(c1)c(CC(=O)O)c(C)n2C(=O)c1ccc(Cl)cc1` [Indomethacin, indomethacin], the “% Inhibition (maximum) of IL-6 secretion” value (3T3-L1 adipocytes [4]; 5.00 μg/ml) was 53* %, the “IL-6 secretion in the presence of TNFα” value (3T3-L1 adipocytes [5]) was “no anti-inflammatory effect” and the adiponectin secretion (3T3-L1 adipocytes [6]; 0.5 ng TNFα/ml, 50 μg/ml) was “dose-dependant decrease in adiponectin secretion”. For the same compound, the “Concentration of maximum adiponectin secretion” value (3T3-L1 adipocytes [6]; 10 ng TNFα/ml) was 5.0 µg/mL, the “Concentration of maximum adiponectin secretion” value (3T3-L1 adipocytes [6]; [9]) was 2.5 µg/mL and the “maximum increase of adiponectin secretion from TNFα solvent control” value (from here on “maximum increase”) (3T3-L1 adipocytes [6]; [9]) was 94%. The Adiponectin/IL-6 (3T3-L1 adipocytes [6]; […], 10 ng TNFα/ml) was 2.00*.

With `COc1cc(O)c(CC=C(C)C)c(O)c1C(=O)/C=C/c1ccc(O)cc1` [xanthohumol] the PI3K isoform preference (PI3K gamma) was “more inhibitory to PI3K-γ than to PI3K-β or PI3K-δ” and the “adipogenic response of hops compounds” value (3T3-L1 adipocytes [2]) was “comparable to indomethacin and troglitazone”.

With `CC(C)Cc1ccc(C(C)C(=O)O)cc1` (stereo not shown) [ibuprofen] the “% Stimulation (maximum) of adiponectin secretion” value (3T3-L1 adipocytes [7]) was 22% and the inhibition at 0.625 µg/mL (3T3-L1 adipocytes [4]; Mus musculus, 3T3-L1, 0.625 μg/ml, read-out: % Inhibition (maximum) of IL-6 secretion) was 54%.

For `Cc1c(C)c2c(c(C)c1O)CCC(C)(COc1ccc(CC3SC(=O)NC3=O)cc1)O2` (stereo not shown) [Troglitazone], the “% Stimulation (maximum) of adiponectin secretion” value (3T3-L1 adipocytes [7]) was 15%, the inhibition at 10 µg/mL (3T3-L1 adipocytes [4]; Mus musculus, 3T3-L1, 10.0 μg/ml, read-out: % Inhibition (maximum) of IL-6 secretion) was 69% and the “maximum increase” value (3T3-L1 adipocytes [6]; 10 ng TNFα/ml) was 51%.

In the case of `O=C(O)c1ccccc1O` [salicylic acid], the adiponectin secretion (3T3-L1 adipocytes [7]) is reported as “failed to induce adiponectin secretion”, the “IL-6 Index” value (3T3-L1 adipocytes [4]; 50.0 μg/ml (dose providing maximum inhibition)) is reported as 0.52* and the inhibition at 50 µg/mL (3T3-L1 adipocytes [4]; Mus musculus, 3T3-L1, 50.0 μg/ml, read-out: % Inhibition (maximum) of IL-6 secretion) is reported as 48%.

In the case of `CCc1ccc(CCOc2ccc(CC3SC(=O)NC3=O)cc2)nc1` (stereo not shown) [Pioglitazone], the “IL-6 Index” value (3T3-L1 adipocytes [4]; 5.00 μg/ml (dose providing maximum inhibition)) is reported as 0.37*, the inhibition at 5 µg/mL (3T3-L1 adipocytes [4]; Mus musculus, 3T3-L1, 5.00 μg/ml, read-out: % Inhibition (maximum) of IL-6 secretion) is reported as 63% and the “maximum increase” value (3T3-L1 adipocytes [6]; 10 ng TNFα/ml) is reported as 80%. For the same compound, the “Adiponectin Index (maximum over four doses)” value (3T3-L1 adipocytes [6]; 10 ng TNFα/ml, Example 17) was 1.47, the “Adiponectin Index Observed” value (3T3-L1 adipocytes [6]; 1.0 μg/ml, indexed to TNFα control) was 1.80 and the “nuclear NF-kBp65” value (NF-kBp65) was “did not inhibit”.

With `CC(=O)Oc1ccccc1C(=O)O` [Aspirin] the adiponectin secretion (3T3-L1 adipocytes [7]) was “failed to induce adiponectin secretion”.

In the case of Beta acids, the “adipogenic response of hops compounds” value (3T3-L1 adipocytes [2]) is reported as “comparable to indomethacin and troglitazone” and the “Percent PGE2 Inhibition” value [8] is reported as 83%.

Reference: patent US20080031893A1 (Metaproteomics, LLC, priority 2006, published 2008)
